Here are results for twelve compounds from ChEMBL document CHEMBL1201862, “PubChem BioAssay data set” (2004).

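Cells were grown in 96-well plates and exposed to each compound for 48 hours at five concentrations; endpoints were interpolated linearly between bracketing concentrations, or set to the highest concentration if not reached. GI50: concentration for 50% inhibition of growth.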 Active and inactive are the calls of the source. No stated cut-off is given here; in the data, active = GI50 up to about 1.1 µM and inactive = higher. Where only a bound is given, the exact number is not on record here.

Test systems include SK-OV-3; SF-295; IGROV-1; 786-0; PC-3; DU-145; SNB-19; ACHN; A549; CCRF-CEM; OVCAR-3; OVCAR-4; SF-268; HL-60; SW-620; U-251; MCF7; HCT-116; SN12C.
Common to all, as to assay: growth of human tumour cells (NCI), 48 h

With `CCOC(=O)C1=C(OS(=O)(=O)C(F)(F)F)CCCC1`, the GI50 in the test on SK-OV-3, in the test on SF-295, in the test on IGROV-1, in the test with 786-0, with PC-3 and with DU-145 was > 100 µM (inactive) each time. Moreover, the GI50 in the test with SNB-19, in the test with ACHN, in the test on A549, in the test on CCRF-CEM, in the test with OVCAR-3 and in the test with OVCAR-4 was > 100 µM (inactive) throughout. The GI50 with SF-268, in the test on HL-60, with SW-620, with U-251 and in the test on MCF7 was > 100 µM (inactive) throughout.

Regarding `O=C1OC(c2ccccc2)N(C(=O)c2ccccc2)C1Cc1ccc(OCc2ccccc2)cc1` (stereo not drawn), the GI50 in the test with SK-OV-3 is > 100 µM (inactive); in the test on IGROV-1, > 100 µM (inactive); in the test with 786-0, 33.1 µM (inactive); in the test on PC-3, 34.8 µM (inactive); in the test on DU-145, > 100 µM (inactive); with SNB-19 it was > 100 µM (inactive). In addition, the GI50 is 6.82 µM (inactive) with ACHN; 80.2 µM (inactive) in the test on A549; > 100 µM (inactive) in the test with CCRF-CEM; > 100 µM (inactive) with HCT-116; 10.1 µM (inactive) in the test with SF-268; 9.89 µM (inactive) in the test with HL-60. Also, the GI50 in the test on SW-620 was > 100 µM (inactive); in the test on U-251 it was > 100 µM (inactive); in the test with MCF7, 5.48 µM (inactive); in the test on SN12C it was > 100 µM (inactive).

For `COc1ccc(O)cc1C=O`, the GI50 with SK-OV-3, in the test with SF-295, in the test with IGROV-1, in the test on 786-0, in the test with SNB-19 and with ACHN was > 100 µM (inactive) throughout. The GI50 with A549 was > 100 µM (inactive); in the test on CCRF-CEM, 44 µM (inactive); in the test on OVCAR-3, > 100 µM (inactive); with HCT-116, 50 µM (inactive); in the test on OVCAR-4, > 100 µM (inactive); with SF-268, > 100 µM (inactive). The GI50 was 21.4 µM (inactive) in the test with HL-60, 47.5 µM (inactive) with SW-620, > 100 µM (inactive) in the test on U-251 and > 100 µM (inactive) in the test with SN12C.

As for `CCCCCC/C=C1\CCC(CN2CCCC2)C1=O` (stereo not drawn), the GI50 is 18.7 µM (inactive) in the test on SK-OV-3; 18.9 µM (inactive) with SF-295; 19.7 µM (inactive) in the test on IGROV-1; 2.61 µM (inactive) with 786-0; > 38.5 µM (inactive) in the test on SNB-19; 18.3 µM (inactive) in the test on ACHN. The GI50 in the test on A549 was 20.5 µM (inactive); in the test with CCRF-CEM, 4.49 µM (inactive); with OVCAR-3 it was 13.9 µM (inactive); in the test on HCT-116, 11.9 µM (inactive); with OVCAR-4, 22.8 µM (inactive); in the test on SF-268, 18.5 µM (inactive). The GI50 was 2.33 µM (inactive) in the test on HL-60, > 28.2 µM (inactive) in the test with SW-620, 15.6 µM (inactive) in the test with U-251 and 12.9 µM (inactive) in the test on SN12C.

Regarding `CC1(C)C2CCC13C(=O)C1OC3(C2)C2C(=O)N(c3ccccc3)C(=O)C12` (stereo not drawn), the GI50 in the test on SK-OV-3, in the test with SF-295, in the test on IGROV-1, in the test on 786-0, in the test on SNB-19 and in the test on ACHN was > 100 µM (inactive) in each case. The GI50 in the test on A549, in the test on CCRF-CEM, in the test with OVCAR-3, in the test with HCT-116, with OVCAR-4 and with SF-268 was > 100 µM (inactive) each time. Also, the GI50 with HL-60, in the test with SW-620, in the test on U-251 and in the test with SN12C was > 100 µM (inactive) in each case.

Take `NS(=O)(=O)c1ccc(NC(=O)c2cccn3c(=O)c4ccccc4nc23)cc1`: the GI50 in the test with SK-OV-3, with SF-295, in the test with IGROV-1, with 786-0, in the test with SNB-19 and in the test with ACHN was > 100 µM (inactive) each time. The GI50 with A549, in the test with CCRF-CEM, in the test on OVCAR-3, with HCT-116, in the test with OVCAR-4 and with SF-268 was > 100 µM (inactive) throughout. Moreover, the GI50 with HL-60, in the test with SW-620, in the test with U-251 and in the test on SN12C was > 100 µM (inactive) in each case.

On to `CN(C)c1nnnn1-c1c(N)n(C)c(=O)n(C)c1=O`, for which the GI50 in the test with SK-OV-3, in the test on SF-295, in the test with IGROV-1, in the test with 786-0, in the test with SNB-19 and with ACHN was > 100 µM (inactive) each time. Also, the GI50 in the test with A549, in the test on CCRF-CEM, with OVCAR-3, in the test on HCT-116, in the test with OVCAR-4 and with SF-268 was > 100 µM (inactive) in each case. Besides, the GI50 with HL-60, in the test on SW-620, in the test with U-251 and in the test on SN12C was > 100 µM (inactive) in each case.

Regarding `C/C=C(/CCC1NCCC2c3ccccc3NC12)[Si](C)(C)C` (stereo not drawn), the GI50 is 15.7 µM (inactive) with SK-OV-3; 15.6 µM (inactive) in the test on SF-295; 12.8 µM (inactive) with IGROV-1; 11.3 µM (inactive) with 786-0; 15.5 µM (inactive) in the test with SNB-19; 14.2 µM (inactive) with ACHN. Also, the GI50 is 14.6 µM (inactive) in the test on A549; 3.6 µM (inactive) in the test on CCRF-CEM; 11.4 µM (inactive) with OVCAR-3; 3.52 µM (inactive) with HCT-116; 7.57 µM (inactive) with OVCAR-4; 9.31 µM (inactive) with SF-268. The GI50 with HL-60 is 2.12 µM (inactive); with SW-620, 3.02 µM (inactive); with U-251, 12.8 µM (inactive); with SN12C, 11.7 µM (inactive).

`CCn1c(-c2cc3ccccc3cc2OC(C)=O)n[nH]c1=S`: the GI50 is 50.7 µM (inactive) with SK-OV-3; 23.4 µM (inactive) in the test on SF-295; 39.6 µM (inactive) with IGROV-1; 75.7 µM (inactive) in the test with 786-0; 15.8 µM (inactive) in the test on PC-3; 35.5 µM (inactive) in the test on DU-145. Also, the GI50 in the test with ACHN is 35.8 µM (inactive); with CCRF-CEM it was 1.16 µM (inactive); in the test on OVCAR-3, 23.7 µM (inactive); with HCT-116 it was 18.5 µM (inactive); in the test on OVCAR-4, 30 µM (inactive); with SF-268, 24.9 µM (inactive). The GI50 was 0.0805 µM (active) with HL-60, 35 µM (inactive) with SW-620, 20.2 µM (inactive) in the test on U-251 and 30.8 µM (inactive) in the test with MCF7.

Regarding `COc1cc(Nc2cnc3ccc(N)cc3n2)cc(OC)c1OC`, the GI50 in the test on SK-OV-3 was > 86.9 µM (inactive); in the test on SF-295, > 96.6 µM (inactive); in the test with IGROV-1, 80.4 µM (inactive); in the test with 786-0 it was > 100 µM (inactive); in the test with SNB-19, > 100 µM (inactive); with ACHN it was > 100 µM (inactive). Further, the GI50 in the test with A549 was > 100 µM (inactive); in the test on CCRF-CEM, 19.8 µM (inactive); in the test on OVCAR-3, 41.3 µM (inactive); with HCT-116 it was > 94.6 µM (inactive); in the test on OVCAR-4 it was > 100 µM (inactive); in the test on SF-268 it was > 100 µM (inactive). Further, the GI50 in the test with HL-60 was 17.7 µM (inactive); in the test with SW-620, > 100 µM (inactive); in the test on U-251, > 100 µM (inactive); with SN12C it was > 100 µM (inactive).

For `O=C(CCN1CCCCC1CCO)Nc1ccc2c(c1)C(=O)c1ccc(NC(=O)CCN3CCCCC3CCO)cc1C2=O` (stereo not drawn), the GI50 with SK-OV-3 is 5.12 µM (inactive); in the test on SF-295 it was 16.7 µM (inactive); with IGROV-1, 4.9 µM (inactive); in the test on 786-0, 1.97 µM (inactive); in the test with SNB-19, 6.07 µM (inactive); with ACHN, 7.93 µM (inactive). For the same compound, the GI50 is 16.7 µM (inactive) in the test on A549; 2.62 µM (inactive) with CCRF-CEM; 2.37 µM (inactive) in the test on OVCAR-3; 4.11 µM (inactive) with HCT-116; 12.4 µM (inactive) in the test with OVCAR-4; 4.88 µM (inactive) with SF-268. Further, the GI50 in the test with HL-60 was 3.24 µM (inactive); with SW-620, 2.12 µM (inactive); in the test with U-251 it was 4.08 µM (inactive); in the test on SN12C, 3.67 µM (inactive).

Consider `O=C1[C@H]2ON(c3ccccc3)C(c3ccccc3Cl)[C@H]2C(=O)N1c1ccc(Cc2ccc(N3C(=O)[C@@H]4ON(c5ccccc5)C(c5ccccc5Cl)[C@@H]4C3=O)cc2)cc1` (stereo partly drawn), for which the GI50 in the test with SK-OV-3, with SF-295, with IGROV-1, in the test with 786-0, with SNB-19 and in the test on ACHN was > 100 µM (inactive) throughout. Moreover, the GI50 in the test on A549, in the test on CCRF-CEM, with OVCAR-3, in the test with HCT-116, with OVCAR-4 and with SF-268 was > 100 µM (inactive) each time. The GI50 in the test on HL-60, in the test with SW-620, with U-251 and in the test on SN12C was > 100 µM (inactive) throughout.
